Like-named read-outs stand apart in the source and are kept apart here.
How the values were obtained:
Assay type in all cases: cell-based
[1] = molecular target: T1, CDK4-NanoLuc fusion with CCND1 in 293T or 293 cells (Homo sapiens, UniProt P11802); assay: NanoBRET Target Engagement (TE) Intracellular Kinase Assay, CDK4/CCND1; settings: NanoBRET TE intracellular kinase assay, 2-hour incubation, read-out: NanoBRET-CDK4/D1 IC50
T1 construct: host or cells: 293T (ATCC CRL-3216) or 293 (ATCC CRL-1573)
T1 sequence (P11802 whole entry, the tested form may be a part): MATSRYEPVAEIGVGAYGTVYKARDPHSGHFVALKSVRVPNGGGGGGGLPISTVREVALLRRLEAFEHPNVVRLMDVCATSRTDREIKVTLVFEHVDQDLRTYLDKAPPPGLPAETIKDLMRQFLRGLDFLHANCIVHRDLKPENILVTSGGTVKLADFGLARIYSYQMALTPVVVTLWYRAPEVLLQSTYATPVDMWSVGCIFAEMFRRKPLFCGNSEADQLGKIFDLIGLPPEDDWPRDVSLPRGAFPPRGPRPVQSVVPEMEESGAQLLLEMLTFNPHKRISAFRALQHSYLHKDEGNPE
T1 sequence (P24385 whole entry partner, the tested form may be a part): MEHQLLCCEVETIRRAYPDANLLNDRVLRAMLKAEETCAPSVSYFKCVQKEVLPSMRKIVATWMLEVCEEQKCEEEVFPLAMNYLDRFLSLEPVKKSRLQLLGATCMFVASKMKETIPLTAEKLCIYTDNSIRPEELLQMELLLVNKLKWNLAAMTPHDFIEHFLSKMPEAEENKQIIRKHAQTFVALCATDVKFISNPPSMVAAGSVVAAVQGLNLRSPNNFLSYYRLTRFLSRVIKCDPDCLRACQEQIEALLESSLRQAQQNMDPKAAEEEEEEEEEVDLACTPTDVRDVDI

[2] = molecular target: T2, CDK1-NanoLuc fusion with CCNB1 in 293T or 293 cells (Homo sapiens, UniProt P06493); assay: NanoBRET Target Engagement (TE) Intracellular Kinase Assay, CDK1/CCNB1; settings: NanoBRET TE intracellular kinase assay, 2-hour incubation, read-out: NanoBRET-CDK1/B1 IC50
T2 construct: host or cells: 293T (ATCC CRL-3216) or 293 (ATCC CRL-1573)
T2 sequence (P06493 whole entry, the tested form may be a part): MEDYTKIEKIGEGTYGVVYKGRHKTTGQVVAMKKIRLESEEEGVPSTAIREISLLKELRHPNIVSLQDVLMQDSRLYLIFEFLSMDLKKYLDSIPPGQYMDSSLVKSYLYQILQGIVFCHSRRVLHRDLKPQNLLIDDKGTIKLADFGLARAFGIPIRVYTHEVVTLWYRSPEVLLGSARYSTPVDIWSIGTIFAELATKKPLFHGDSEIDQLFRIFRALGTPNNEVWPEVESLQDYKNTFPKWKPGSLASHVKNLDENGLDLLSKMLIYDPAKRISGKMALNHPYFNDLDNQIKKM
T2 sequence (P14635 whole entry partner, the tested form may be a part): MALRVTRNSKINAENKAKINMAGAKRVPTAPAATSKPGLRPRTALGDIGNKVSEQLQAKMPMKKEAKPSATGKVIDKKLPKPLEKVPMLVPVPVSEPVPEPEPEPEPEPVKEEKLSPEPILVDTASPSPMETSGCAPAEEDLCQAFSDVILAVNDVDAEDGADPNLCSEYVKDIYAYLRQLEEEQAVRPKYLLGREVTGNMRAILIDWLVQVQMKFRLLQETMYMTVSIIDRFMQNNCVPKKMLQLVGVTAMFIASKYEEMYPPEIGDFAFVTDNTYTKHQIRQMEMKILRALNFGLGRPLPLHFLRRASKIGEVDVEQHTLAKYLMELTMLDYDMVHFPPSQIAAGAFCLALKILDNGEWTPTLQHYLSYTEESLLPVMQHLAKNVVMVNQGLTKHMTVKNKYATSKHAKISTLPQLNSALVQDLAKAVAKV
In short: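 293T or 293 cells co-transfected with CDK1-NanoLuc and CCNB1 vectors, incubated 24 h, then exposed to NanoBRET Tracer K-10 plus compound for 2 h at 37° C. BRET ratio (610/450 nm) normalized to DMSO; IC50 from four-parameter logistic fit.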

[3] = system: Phospho-Rb Ser807/811 in OVCAR3 cells; assay: OVCAR3 Phospho-Rb Ser807/811 HTRF assay; settings: Homo sapiens, OVCAR3 cells, Phospho-Rb Ser807/811 HTRF, 1 hour incubation, read-out: pRb-OVCAR3 IC50
Description: Cells were trypsinized and resuspended in 1 mM hydroxyurea (Sigma; H8627), 90% RPMI and 10% fetal bovine serum. […] Dose response curve normalized to DMSO control was plotted using four-parameter logistic model for IC50 calculation.

[4] = molecular target: T3, CDK2-NanoLuc fusion with CCNE1 in 293T or 293 cells (Homo sapiens, UniProt P24941); assay: NanoBRET Target Engagement (TE) Intracellular Kinase Assay, CDK2/CCNE1; settings: NanoBRET TE intracellular kinase assay, 2-hour incubation, read-out: NanoBRET-CDK2/E1 IC50
T3 construct: host or cells: 293T (ATCC CRL-3216) or 293 (ATCC CRL-1573)

IC50 [1] | IC50 [2] | IC50 ([3]; OVCAR-3, 1 h) | IC50 [4] | Structure (SMILES) | IC50 ([3]; OVCAR-3)
> 10 µM | 26.3 nM | 68.5 nM | 6.9 nM | COCCOCCNC(=O)O[C@@H]1CC[C@H](c2cc(NC(=O)COc3cc(OC)cc(O)c3C=O)n[nH]2)C1 [Compound 210] | 
> 10 µM | 61 nM | 299 nM | 26.7 nM | CC(C)NC(=O)O[C@@H]1CC[C@H](c2cc(NC(=O)COc3cc(Cl)cc(O)c3C=O)n[nH]2)C1 [Compound 73, (1R,3S)-3-(3-(2-(5-chloro-2-formyl-3-hydroxyphenoxy)acetamido)-1H-pyrazol-5-yl)cyclopentyl isopropylcarbamate] | 
1.91 µM | 82.2 nM | 702 nM | 8.17 nM | CC(C)NC(=O)O[C@@H]1CC[C@H](c2cc(NC(=O)COCc3cccc(O)c3C=O)n[nH]2)C1 [Compound 36, (1R,3S)-3-(5-{2-[(2-formyl-3-hydroxyphenyl)methoxy]acetamido}-2H-pyrazol-3-yl)cyclopentyl N-isopropylcarbamate; trifluoroacetic acid] | 
> 10 µM | 23.7 nM | 177 nM | 2.6 nM | O=Cc1c(O)cccc1OCC(=O)Nc1cc([C@H]2CC[C@@H](OC(=O)N3CCCC3)C2)[nH]n1 [Compound 85, (1R,3S)-3-{5-[2-(2-formyl-3-hydroxyphenoxy)acetamido]-2H-pyrazol-3-yl}cyclopentyl pyrrolidine-1-carboxylate] | 
4.96 µM | 11.6 nM | 55.7 nM | 1.79 nM | COc1cc(O)c(C=O)c(OCC(=O)Nc2cc([C@H]3CC[C@@H](OC(=O)N4CC5CC5C4)C3)[nH]n2)c1 (stereo partly drawn) [Compound 237] | 
0.961 µM | 5.09 nM | 34.8 nM | 2.42 nM | COc1cc(O)c(C=O)c(OCC(=O)Nc2cc([C@H]3CC[C@@H](OC(=O)NC(C)(C)C)C3)[nH]n2)c1 [Compound 128, (1R,3S)-3-(3-(2-(2-formyl-3-hydroxy-5-methoxyphenoxy)acetamido)-1H-pyrazol-5-yl)cyclopentyl tert-butylcarbamate] | 
0.723 µM | 3.95 nM | 25.4 nM | 3.12 nM | COc1cc(O)c(C=O)c(OCC(=O)Nc2cc([C@H]3CC[C@@H](OC(=O)N4CCC[C@@H]4C)C3)[nH]n2)c1 [Compound 245] | 
4.11 µM | 10.3 nM | 85.5 nM | 7.8 nM | COCc1cc(O)c(C=O)c(-c2cc(C(=O)Nc3cc([C@H]4CC[C@@H](OC(=O)NC(C)C)C4)[nH]n3)n(C)n2)c1 [Compound 71, (1R,3S)-3-(5-{5-[2-formyl-3-hydroxy-5-(methoxymethyl)phenyl]-2-methylpyrazole-3-amido}-2H-pyrazol-3-yl)cyclopentyl N-isopropylcarbamate; trifluoroacetic acid] | 
> 10 µM | 21.4 nM | 259 nM | 3.14 nM | C#Cc1cc(O)c(C=O)c(OCC(=O)Nc2cc([C@H]3CC[C@@H](OC(=O)NC(C)C)C3)[nH]n2)c1 [Compound 99, (1R,3S)-3-(3-(2-(5-ethynyl-2-formyl-3-hydroxyphenoxy)acetamido)-1H-pyrazol-5-yl)cyclopentyl isopropylcarbamate] | 
> 10 µM | 36 nM | 149 nM | 4.69 nM | COc1cc(O)c(C=O)c(OCC(=O)Nc2cc([C@H]3C[C@@H](OC(=O)N4CCCC4)C3)[nH]n2)c1 [Compound 112, (1s,3s)-3-(3-(2-(2-formyl-3-hydroxy-5-methoxyphenoxy)acetamido)-1H-pyrazol-5-yl)cyclobutyl pyrrolidine-1-carboxylate] | 
> 10 µM | 703 nM | 2490 nM | 10.5 nM | CC(C)NC(=O)O[C@@H]1CC[C@H](c2cc(NC(=O)COc3cc(-n4cccn4)cc(O)c3C=O)n[nH]2)C1 [Compound 257] | 
2.04 µM | 4.59 nM | 26.3 nM | 3.48 nM | COc1cc(O)c(C=O)c(OCC(=O)Nc2cc([C@H]3CC[C@@H](OC(=O)N4CCOCC45CC5)C3)[nH]n2)c1 [Compound 205] | 
1.8 µM | 62.9 nM | 274 nM | 7.87 nM | CC(C)NC(=O)O[C@@H]1CC[C@H](c2cc(NC(=O)[C@H]3C[C@H](Oc4cccc(O)c4C=O)C3)n[nH]2)C1 (single isomer, unassigned) [Compound 1] | 
3.96 µM | 537 nM | 4130 nM | 23.9 nM | CC(C)NC(=O)O[C@@H]1CC[C@H](c2cc(NC(=O)OCCc3cccc(O)c3C=O)n[nH]2)C1 [Compound 35, 2-(2-formyl-3-hydroxyphenyl)ethyl N-{5-[(1S,3R)-3-[(isopropylcarbamoyl)oxy]cyclopentyl]-1H-pyrazol-3-yl}carbamate; trifluoroacetic acid] | 
9.8 µM | 24.3 nM | 208 nM | 2.77 nM | O=Cc1c(O)cccc1OCC(=O)Nc1cc([C@H]2CC[C@@H](OC(=O)NC3CCC3)C2)[nH]n1 [Compound 87, (1R,3S)-3-(3-(2-(2-formyl-3-hydroxyphenoxy)acetamido)-1H-pyrazol-5-yl)cyclopentyl cyclobutylcarbamate] | 
> 10 µM | 25.2 nM | 132 nM | 3.95 nM | COc1cc(O)c(C=O)c(OCC(=O)Nc2cc([C@H]3CC[C@@H](OC(=O)N(C)N(C)C)C3)[nH]n2)c1 [Compound 172, (1R,3S)-3-(3-(2-(2-formyl-3-hydroxy-5-methoxyphenoxy)acetamido)-1H-pyrazol-5-yl)cyclopentyl 1,2,2-trimethylhydrazine-1-carboxylate] | 
> 10 µM | 28.9 nM | 93.6 nM | 2.64 nM | COc1cc(O)c(C=O)c(OCC(=O)Nc2cc([C@H]3CC[C@@H](OC(=O)N4CCCO4)C3)[nH]n2)c1 [Compound 224] | 
0.0443 µM | 8.93 nM | 46.5 nM | 3.05 nM | COc1cc(O)c(C=O)c(OCc2cc(C(=O)Nc3cc([C@H]4CC[C@@H](OC(=O)NC(C)C)C4)[nH]n3)n(C)n2)c1 [Compound 77] | 
3.87 µM | 5.94 nM | 28.7 nM | 6.55 nM | COCC1(NC(=O)O[C@@H]2CC[C@H](c3cc(NC(=O)COc4cc(OC)cc(O)c4C=O)n[nH]3)C2)CC1 [Compound 209] | 
0.846 µM | 2.14 nM | 13.1 nM | 1.89 nM | COc1cc(O)c(C=O)c(OCC(=O)Nc2cc([C@H]3CC[C@@H](OC(=O)N4CCC4(C)C)C3)[nH]n2)c1 [Compound 239, (1R,3S)-3-(3-(2-(2-formyl-3-hydroxy-5-methoxyphenoxy)acetamido)-1H-pyrazol-5-yl)cyclopentyl 2,2-dimethylazetidine-1-carboxylate] | 
3.84 µM | 278 nM | 2400 nM | 16.3 nM | CC(C)NC(=O)O[C@@H]1CC[C@H](c2cc(NC(=O)C3CCN(c4cccc(O)c4C=O)CC3)n[nH]2)C1 [Compound 92, (1R,3S)-3-{5-[1-(2-formyl-3-hydroxyphenyl)piperidine-4-amido]-2H-pyrazol-3-yl}cyclopentyl N-isopropylcarbamate] | 
4.63 µM | 28.1 nM | 318 nM | 8.52 nM | Cc1sc(-c2cccc(O)c2C=O)nc1C(=O)Nc1cc([C@H]2CC[C@@H](OC(=O)NC(C)C)C2)[nH]n1 [Compound 65, (1R,3S)-3-(3-(2-(2-formyl-3-hydroxyphenyl)-5-methylthiazole-4-carboxamido)-1H-pyrazol-5-yl)cyclopentyl isopropylcarbamate] | 
5.1 µM | 18.4 nM | 28.7 nM | 2.65 nM | C#CCNC(=O)O[C@@H]1CC[C@H](c2cc(NC(=O)COc3cc(OC)cc(O)c3C=O)n[nH]2)C1 [Compound 253] | 
> 10 µM | 26.7 nM | 121 nM | 4.44 nM | CC(C)NC(=O)O[C@H]1C[C@@H](c2cc(NC(=O)COc3cccc(O)c3C=O)n[nH]2)C1 [Compound 114, (1s,3s)-3-(3-(2-(2-formyl-3-hydroxyphenoxy)acetamido)-1H-pyrazol-5-yl)cyclobutyl isopropylcarbamate] | 

Structure (SMILES) | IC50 [1] | IC50 [2] | IC50 ([3]; OVCAR-3, 1 h) | IC50 [4] | IC50 ([3]; OVCAR-3)
CC(C)NC(=O)O[C@@H]1CC[C@H](c2cc(NC(=O)CCc3ccc(O)c(C=O)c3)n[nH]2)C1 [Compound 6, (1R,3S)-3-{5-[3-(3-formyl-4-hydroxyphenyl)propan-amido]-2H-pyrazol-3-yl}cyclopentyl N-isopropylcarbamate; trifluoroacetic acid] | 0.397 µM | 113 nM |  | 12.5 nM | 618 nM
COc1cc(O)c(C=O)c(OCC(=O)Nc2cc([C@H]3CC[C@@H](OC(=O)N4C5CCC4CC5)C3)[nH]n2)c1 [Compound 229] | 1.9 µM | 1.97 nM | 28.8 nM | 1.75 nM | 
COc1cc(O)c(C=O)c(OCC(=O)Nc2cc([C@H]3CC[C@@H](OC(=O)N4CC5CC(C5)C4)C3)[nH]n2)c1 [Compound 226] | 3.06 µM | 9.17 nM | 63.7 nM | 2.45 nM | 

— patent US20250289789A1, “REVERSIBLE LYSINE COVALENT MODIFIERS OF CDK2 AND USES THEREOF” (Terremoto Biosciences, Inc., priority 2023, published 2025)
